Measurements from PubChem BioAssay AID977621 (Broad Institute, 2014).
Records with an inconclusive call do not appear. Active and inactive are the calls of the source.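 The calls were made as follows: active = Wild-type ribosome reporter drop at least double the humanized mutant ribosome reporter drop, growth loss under a set limit; inconclusive = no clear call, values can overlap the other calls; inactive = the rest.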

Test system: E. coli wild-type GFP strain growth, fluorescence, 24 h
Assay: wild-type E. coli growth inhibition versus H69 humanized strain – H69 mutant RFP, wild-type GFP, cherry-pick, dose response (AID 977621);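 also: wild-type GFP and H69 mutant RFP strains grown together 50/50 in each well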
[1] = E. coli mixed culture, 24 h, measured here: total growth OD600, test 2

SMILES | AC50 [1] | AC50 | AC50 (measured here: total growth OD600, test 2)
CC(C)(C)c1ccc(-c2noc(CCC(=O)NCc3ccco3)n2)cc1 | > 100 µM | – | –
O=C(Nc1cccc(Cl)c1)N1C[C@H]2[C@@H](c3ccccc31)[C@H](CO)N2CC1CCCCC1 | – | > 100 µM (inactive) | –
O=C(O)c1ccc(S(=O)(=O)N(Cc2ccc(F)cc2)C2CCCCC2)cc1 | 30.2 µM | > 100 µM (inactive) | –
Fc1ccc(-c2nnc(-c3ccc4ccccc4c3)o2)cc1 | > 100 µM | > 100 µM (inactive) | –
COc1ccccc1Cn1c(=S)[nH]c2ccc(F)cc2c1=O | – | > 100 µM (inactive) | –
O=C(Cc1ccc(Br)cc1)Nc1cccc(-c2cn3c(n2)SCC3)c1 | > 100 µM | – | –
N#CCC(=O)Nc1ccc(C(=O)OCC(=O)Nc2ccc3ccccc3c2)cc1 | – | > 100 µM (inactive) | –
CC1CCCN(c2ccc(C(=O)NCCc3ccccc3)cn2)C1 (configuration not stated) | > 100 µM | – | –
CC(C)(C)c1ccc(N2C(=O)CSC2c2cccnc2)cc1 (configuration not stated) | > 100 µM | – | –
Cc1ccc(C(=O)CSc2nnc(COc3cccc4cccnc34)o2)cc1 | 46.3 µM | > 100 µM (inactive) | –
Clc1ccccc1-c1nnc2sc(CCc3ccccc3)nn12 | 15.4 µM | > 100 µM (inactive) | –
CC(C)Nc1nnc(SCC(=O)Nc2sccc2C#N)s1 | – | > 100 µM (inactive) | –
O=C(Nc1cscc1S(=O)(=O)c1ccccc1)c1ccccc1Cl | – | > 100 µM (inactive) | –
O=S(=O)(Cc1ccccc1)N1CCCCN2[C@@H](CO)[C@H](c3ccc(C#Cc4ccccc4)cc3)[C@@H]2C1 | – | > 100 µM (inactive) | –
CCC(=O)c1ccc(OCC(=O)Nc2nc(C)cs2)cc1 | > 100 µM | > 100 µM (inactive) | –
Cc1cc(OCCCCOc2ccc(S(N)(=O)=O)c(C)c2)ccc1S(N)(=O)=O | 49.4 µM | > 100 µM (inactive) | –
COc1cc(C(=O)Nc2nnc(S(=O)(=O)N3CCCCCC3)s2)cc(OC)c1OC | 36.3 µM | > 100 µM (inactive) | –
Cc1sc2ncnc(N3CCCC(C)C3)c2c1C (configuration not stated) | – | > 100 µM (inactive) | –
O=S(=O)(Nc1cccc(-c2ccc(N3CCCCCC3)nn2)c1)c1ccc(F)cc1 | – | > 100 µM (inactive) | –
CCOc1ccc2nc(NC(=O)CSc3nc(SC)ns3)sc2c1 | > 100 µM | – | –
CC(C)=C(c1ccc(Cl)cc1)c1c(N)ncnc1N | – | > 100 µM (inactive) | –
O=C(NCCc1ccccn1)c1cccc(S(=O)(=O)N2CCc3ccccc32)c1 | – | > 100 µM (inactive) | –
CCCCc1ccc(S(=O)(=O)Nc2ccc(C)c(NS(C)(=O)=O)c2)cc1 | 49.5 µM | – | –

SMILES | AC50 [1] | AC50 | AC50 (measured here: total growth OD600, test 2)
COc1ccc(C(=O)NCCC2=CCCCC2)cc1[N+](=O)[O-] | > 100 µM | – | –
CCCCCCCNC(=O)c1ccc(N2CCC3(CC2)OCCO3)c([N+](=O)[O-])c1 | 35.4 µM | > 100 µM (inactive) | –
COc1cccc(NC2=Nc3cccc4cccc2c34)c1 | > 100 µM | – | –
O=C(CN(CCO)c1ccccc1)Nc1cccc(S(=O)(=O)N2CCCC2)c1 | – | > 100 µM (inactive) | –
COc1ccc(CNS(=O)(=O)c2ccc3c(c2)NC(=O)C(C)S3)cc1 (configuration not stated) | – | > 100 µM (inactive) | –
COc1ccc(CCNc2nc(-c3ccncc3)cs2)cc1OC | – | > 100 µM (inactive) | –
Cc1ccccc1CSCC(=O)Nc1ccccc1F | – | > 100 µM (inactive) | –
Cc1nc(N2CCCCC2)sc1C(=O)c1ccc(SCCO)c([N+](=O)[O-])c1 | 34.5 µM | > 100 µM (inactive) | –
CN(C)S(=O)(=O)N1CCN(c2ccccc2Cl)CC1 | > 100 µM | – | –
S=c1[nH]c2cc(Cl)ccc2s1 | – | > 100 µM (inactive) | –
N#Cc1ccsc1NC(=O)CSc1nnnn1-c1ccc(O)cc1 | – | > 100 µM (inactive) | –
Cc1ccc(NC(=O)c2ccc(CSc3ccccn3)cc2)c(O)c1 | 20.9 µM | > 100 µM (inactive) | –
CN(c1ccccc1)S(=O)(=O)c1cccc(C(=O)OCC(=O)NCc2ccco2)c1 | – | > 100 µM (inactive) | –
CC(C)CC#Cc1ccc2c(c1)O[C@@H](CN(C)Cc1ccccn1)[C@H](C)CN([C@H](C)CO)S2(=O)=O | – | > 100 µM (inactive) | –
Cc1ccc(C(=O)C2CCN(CC(=O)Nc3nc(C)cs3)CC2)cc1 | 7.66 µM | > 100 µM (inactive) | –
Cc1nn(CC(=O)OCCOc2ccc(Br)cc2)c(C)c1[N+](=O)[O-] | > 100 µM | – | –
CCOC(=O)c1cc2sccc2n1CCCN1C(=O)c2ccccc2C1=O | > 100 µM | > 100 µM (inactive) | –
O=C(Cc1cccnc1)N1CC(=O)N2[C@H](C1)[C@@H](c1ccc(C3=CCCCC3)cc1)[C@@H]2CO | > 100 µM | > 100 µM (inactive) | –
Cc1cccc(-c2ccc([C@H]3[C@@H](CO)N4CCCCN(S(=O)(=O)c5ccccc5C)C[C@H]34)cc2)c1 | 27.2 µM | – | –
Cc1ccc(C2NC(c3ccc(C)cc3)C(C)C(=O)C2C)cc1 (configuration not stated) | 47.8 µM | – | –
Cc1ccc(C2NC(=O)c3[nH]nc(-c4ccccc4)c32)cc1 (configuration not stated) | 42.3 µM | > 100 µM (inactive) | –
CC(C)(C)NC(=O)C(c1ccncc1)N(Cc1ccc(F)cc1)C(=O)c1ccc(-c2ccccc2)[nH]1 (configuration not stated) | > 100 µM | – | –
O=C(c1ccco1)N(CCCN1CCOCC1)c1nc(-c2ccc(F)cc2)cs1 | – | > 100 µM (inactive) | –

SMILES | AC50 [1] | AC50 | AC50 (measured here: total growth OD600, test 2)
O=[N+]([O-])c1ccc2nc(-c3ccccc3[N+](=O)[O-])[nH]c2c1 | > 100 µM | > 100 µM (inactive) | –
Cc1ccc(-c2c[n+](CC(=O)Nc3ccccc3)c3n2CCC3)cc1 | > 100 µM | – | –
C=CCn1c(SCc2n[nH]c(=S)n2-c2ccccc2)nnc1-c1ccccc1 | – | > 100 µM (inactive) | –
CC(=O)c1c(C)[nH]c(C(=O)Nc2nc(C)cs2)c1C | > 100 µM | – | –
COc1ccc(NC(=O)c2oc3ccccc3c2NC(=O)C2CCCO2)cc1OC (configuration not stated) | – | > 100 µM (inactive) | –
COc1cc2c(cc1OC)CN(c1ccc([N+](=O)[O-])c(C(F)(F)F)c1)CC2 | – | > 100 µM (inactive) | > 100 µM
COC(=O)c1cc2ccccc2n1S(=O)(=O)c1ccccc1 | > 100 µM | – | –
O=C(COC(=O)CCC(=O)c1ccc(F)cc1)Nc1cccc(S(=O)(=O)N2CCCC2)c1 | > 100 µM | – | –
COc1ccc(NC(=O)c2sccc2-n2cccc2)cc1 | – | > 100 µM (inactive) | –
COc1ccc(OC)c(-c2csc(NC(=O)C3COc4ccccc4O3)n2)c1 (configuration not stated) | > 100 µM | – | –
O=C(c1cc(COc2ccc(F)cc2F)on1)N1CCCC(c2ccccc2)C1 (configuration not stated) | 14.5 µM | > 100 µM (inactive) | –
Clc1ccccc1C1CC(c2ccccc2)=Nc2ccccc2N1 (configuration not stated) | – | > 100 µM (inactive) | –
Fc1cccc(Cl)c1CSc1ccc(-c2ccco2)nn1 | > 100 µM | – | –
C=CCn1c(CCSCc2ccc(OC)c(C)c2)n[nH]c1=S | 33.6 µM | > 100 µM (inactive) | –
Nc1ccc(C(=O)Nc2ccc3nc(-c4ccncc4)[nH]c3c2)cc1 | – | > 100 µM (inactive) | –
CC(CCc1ccccc1)NC(=O)CNC(=O)COc1ccccc1 (configuration not stated) | > 100 µM | – | –
COC(=O)CNC(=O)COC(=O)c1ccc(Cl)nc1 | > 100 µM | – | –
O=C(NCCc1ccccc1)c1ccc2c(c1)S(=O)(=O)c1ccccc1C2=O | 41.5 µM | > 100 µM (inactive) | –
Cc1cccc(CN2C(=O)c3ccccc3Sc3ccc(C(=O)O)cc32)c1 | – | > 100 µM (inactive) | –
CCn1c(SCC(=O)Nc2ccc(OC)cc2)nc2nc3c(cc2c1=O)CCCC3 | > 100 µM | – | –
CS(=O)(=O)c1cccc(C(=O)Nc2cccc(-c3nc4ccccc4[nH]3)c2)c1 | – | > 100 µM (inactive) | –
O=C(Nc1ccc2c(c1)OCO2)c1ccc([N+](=O)[O-])cc1[N+](=O)[O-] | – | > 100 µM (inactive) | –
